{"source": "paper PMC6973011", "about": "“Stafia‐1: a STAT5a‐Selective Inhibitor Developed via Docking‐Based Screening of in Silico O‐Phosphorylated Fragments” (Chemistry (Weinheim an Der Bergstrasse, Germany), 2019)", "key": {"STAT5b": {"target": "T1, STAT5b (Homo sapiens, UniProt P51692)", "T1 construct": "made in house", "T1 sequence (P51692 1-787)": "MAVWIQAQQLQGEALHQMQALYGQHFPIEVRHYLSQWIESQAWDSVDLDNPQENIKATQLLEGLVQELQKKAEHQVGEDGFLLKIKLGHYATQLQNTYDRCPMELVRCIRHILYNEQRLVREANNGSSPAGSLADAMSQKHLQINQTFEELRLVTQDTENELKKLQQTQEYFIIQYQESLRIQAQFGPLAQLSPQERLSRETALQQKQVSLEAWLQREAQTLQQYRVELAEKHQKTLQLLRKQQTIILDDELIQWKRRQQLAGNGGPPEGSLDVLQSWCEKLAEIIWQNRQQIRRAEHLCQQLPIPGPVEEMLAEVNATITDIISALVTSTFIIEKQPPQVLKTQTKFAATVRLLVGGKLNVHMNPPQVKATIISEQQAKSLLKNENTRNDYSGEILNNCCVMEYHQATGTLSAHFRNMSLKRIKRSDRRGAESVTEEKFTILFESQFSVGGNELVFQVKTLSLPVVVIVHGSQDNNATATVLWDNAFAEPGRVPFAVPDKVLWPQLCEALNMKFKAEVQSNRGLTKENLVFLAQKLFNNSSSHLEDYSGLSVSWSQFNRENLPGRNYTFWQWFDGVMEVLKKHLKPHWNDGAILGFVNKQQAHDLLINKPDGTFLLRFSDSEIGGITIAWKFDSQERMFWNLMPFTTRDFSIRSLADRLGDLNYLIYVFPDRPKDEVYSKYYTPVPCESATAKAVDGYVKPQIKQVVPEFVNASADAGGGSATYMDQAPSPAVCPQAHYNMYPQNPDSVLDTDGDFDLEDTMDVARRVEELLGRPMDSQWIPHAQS", "test": "Fluorescence polarization competitive binding assay, STAT5b", "settings": "read-out: STAT5b inhibition at 200 μM"}, "[1]": {"target": "T2, STAT5b Arg566Trp/Met644Lys (Homo sapiens, UniProt P51692, M644K/R566W)", "T2 construct": "made in house", "T2 sequence (P51692 1-787 R566W/M644K)": "T1 sequence (P51692 1-787) with R566W, M644K", "test": "Fluorescence polarization assay, double mutant STAT5b Arg566Trp/Met644Lys", "assay_type": "binding", "settings": "FP assay"}, "[2]": {"target": "T3, STAT5b Arg566Trp/Gln636Pro/Met639Asn/Phe640Leu/Met644Lys/Asn664Ser/Tyr679Phe (STAT5b‐7M) (Homo sapiens, UniProt P51692, F640L/M639N/M644K/N664S/Q636P/R566W/Y679F)", "T3 construct": "made in house", "T3 sequence (P51692 1-787 R566W/Q636P/M639N/F640L/M644K/N664S/Y679F)": "T1 sequence (P51692 1-787) with R566W, Q636P, M639N, F640L, M644K, N664S, Y679F", "test": "Fluorescence polarization assay, mutant STAT5b-7M", "assay_type": "binding", "settings": "FP assay"}}, "note": "Positions count from the first letter of the chain named.", "data": [{"smiles": "COc1cc(-c2cc(OP(=O)(O)O)cc(-c3cc(OC)c(OC)c(OC)c3)c2)cc(OC)c1OC", "note": "[Compound 20]", "values": [{"measurement": "inhibition at 200 µM", "setting": "STAT5b", "result": "37 ± 5", "unit": "%"}, {"measurement": "IC50", "setting": "[1]", "result": "128 ± 8", "unit": "µM"}, {"measurement": "Ki", "setting": "[1]", "result": "63.1 ± 4.2", "unit": "µM"}, {"measurement": "IC50", "setting": "[2]", "result": "42.6 ± 8.8", "unit": "µM"}, {"measurement": "Ki", "setting": "[2]", "result": "21.1 ± 4.4", "unit": "µM"}]}]}
